Test results taken from article PMC7309260, “Peptide Probes for Plasmodium falciparum MyoA Tail Interacting Protein (MTIP): Exploring the Druggability of the Malaria Parasite Motor Complex” (ACS Chemical Biology, 2020).
Like-named read-outs stand apart in the source and are kept apart here. Where a SMILES comes first, the peptide text is derived from it. Where no end group is shown, it is not given here. [ ]: non-standard residue; d: D form. The star is where a group is joined. 5FAM = O=C1OC2(c3ccc(O)cc3Oc3cc(O)ccc32)c2ccc(C(=O)*)cc21; Abu(3-Me-diazirin-3-yl) = CC1(CC[C@H](N)C(=O)O)N=N1

Columns and labels:
PfMTIPΔ60 [1] = target: T1, PfMTIPΔ60 (Plasmodium falciparum, UniProt Q8I4W8); experiment: biochemical; type: binding; settings: for n (ITC stoichiometry) / ΔH (ITC) / ΔS (ITC): 303 K, n = 2
T1 construct: PfMTIPΔ60 stocks were recombinantly expressed in E. coli BL21; made in house; host or cells: E. coli BL21

PfMTIPΔ60 [2] = target: T1, PfMTIPΔ60; experiment: biochemical; type: binding
P. falciparum [3] = settings: read-out: EC50, P. falciparum reinvasion / cell viability; serial dilution of peptides in triplicate, egress in presence of peptide, flow cytometry at trophozoite stage, n = 3
[4] = tested on: P. falciparum (3D7 strain); settings: for uptake of polyarginines compared by chain length: flow cytometry (Figure 2c)
[5] = tested on: P. falciparum late schizonts; settings: 10 μM peptide, 3 h
P. falciparum [6] = experiment: microbe, parasite or virus in culture; settings: Plasmodium falciparum, read-out: EC50, P. falciparum reinvasion control curve
[7] = 1% TX-100, densitometry, 2 µL loading
[8] = 1% TX-100, densitometry, 5 µL loading
[9] = 1% TX-100, densitometry, average of 2 µL and 5 µL loadings
[10] = densitometry, average of 2 µL and 5 µL loadings

With “KNIPSLLRVQAHIRKKMV-NH2 (C-terminus assumed) [My1]” the “n (ITC stoichiometry)” value (PfMTIPΔ60 [1]) was 1.06 ± 0.01, the “ΔH (ITC)” value (PfMTIPΔ60 [1]) was -15.9 ± 0.12 kcal/mol and the “ΔS (ITC)” value (PfMTIPΔ60 [1]) was -85.9 J/K.mol.

`CC[C@H](C)[C@H](NC(=O)[C@H](Cc1c[nH]cn1)NC(=O)[C@H](CCCNC(=N)N)NC(=O)[C@H](CCC(N)=O)NC(=O)[C@@H](NC(=O)[C@H](C)NC(=O)[C@H](CC(C)C)NC(=O)[C@H](CCCNC(=N)N)NC(=O)[C@H](CO)NC(=O)[C@@H]1CCCN1C(=O)[C@@H](NC(=O)[C@H](CC(N)=O)NC(=O)[C@H](CC(C)C)NC(=O)CNC(=O)c1ccc2c(c1)C(=O)OC21c2ccc(O)cc2Oc2cc(O)ccc21)[C@@H](C)CC)C(C)C)C(=O)N[C@@H](CCCNC(=N)N)C(=O)N[C@@H](CCCNC(=N)N)C(=O)N[C@@H](CCCNC(=N)N)C(=O)N[C@@H](CCSC)C(=O)N[C@H](C(N)=O)C(C)C` [F-ArgMy2] (5FAM-GLNIPSRLAVQRHIRRRMV-NH2) was tested, and the Kd (PfMTIPΔ60 [2]) was 4220 nM.

In the case of `CC[C@H](C)[C@H](NC(=O)[C@H](Cc1c[nH]cn1)NC(=O)[C@H](C)NC(=O)[C@H](CCC(N)=O)NC(=O)[C@@H](NC(=O)[C@H](CCCNC(=N)N)NC(=O)[C@H](CC(C)C)NC(=O)[C@H](CC(C)C)NC(=O)[C@H](CO)NC(=O)[C@@H]1CCCN1C(=O)[C@@H](NC(=O)[C@H](CC(N)=O)NC(=O)[C@H](CCCCN)NC(=O)CNC(=O)c1ccc2c(c1)C(=O)OC21c2ccc(O)cc2Oc2cc(O)ccc21)[C@@H](C)CC)C(C)C)C(=O)N[C@@H](CCCNC(=N)N)C(=O)N[C@@H](CCCCN)C(=O)N[C@@H](CCCCN)C(=O)N[C@@H](CCSC)C(=O)N[C@H](C(N)=O)C(C)C` [F-My1] (5FAM-GKNIPSLLRVQAHIRKKMV-NH2), the Kd (PfMTIPΔ60 [1]) is reported as 57.1 ± 13 nM, the “n (ITC stoichiometry)” value (PfMTIPΔ60 [1]) is reported as 0.91 ± 0.01 and the “ΔH (ITC)” value (PfMTIPΔ60 [1]) is reported as -17.6 ± 0.22 kcal/mol. The “ΔS (ITC)” value (PfMTIPΔ60 [1]) was -104 J/K.mol and the EC50 (P. falciparum [3]) was about 160000 nM.

`CC[C@H](C)[C@H](NC(=O)[C@H](Cc1c[nH]cn1)NC(=O)[C@H](C)NC(=O)[C@H](CCC(N)=O)NC(=O)[C@@H](NC(=O)[C@H](CCCNC(=N)N)NC(=O)[C@H](CC(C)C)NC(=O)[C@H](CC(C)C)NC(=O)[C@H](CO)NC(=O)[C@@H]1CCCN1C(=O)[C@@H](NC(=O)[C@H](CC(N)=O)NC(=O)[C@H](CCCCN)NC(=O)CNC(=O)[C@H](CCC1(C)N=N1)NC(=O)c1ccc2c(c1)C(=O)OC21c2ccc(O)cc2Oc2cc(O)ccc21)[C@@H](C)CC)C(C)C)C(=O)N[C@@H](CCCNC(=N)N)C(=O)N[C@@H](CCCCN)C(=O)N[C@@H](CCCCN)C(=O)N[C@@H](CCSC)C(=O)N[C@H](C(N)=O)C(C)C` [F/D-My1] (5FAM-[Abu(3-Me-diazirin-3-yl)]GKNIPSLLRVQAHIRKKMV-NH2) gave a Kd (PfMTIPΔ60 [2]) of 3.4 nM.

With FAM GRRRRRRRR -NH2 [F-Arg8] the “uptake compared with F-My1” value ([4]; Pf3D7 early schizonts ca. 35 h PI, flow cytometry, unpaired t test (Figure 2b)) was “significantly greater permeability over F-My1” and the “uptake of polyarginines compared by chain length” value (“uptake … compared by chain length” for short) ([4]; Pf3D7 early schizonts) was “significantly greater than F-Arg6”.

In the case of FAM GRRRRRRR -NH2 [F-Arg7], the “uptake … compared by chain length” value ([4]; Pf3D7 early schizonts) is reported as “significantly greater than F-Arg6”.

For `CC[C@H](C)[C@H](NC(=O)[C@H](Cc1c[nH]cn1)NC(=O)[C@H](C)NC(=O)[C@H](CCC(N)=O)NC(=O)[C@@H](NC(=O)[C@H](CCCNC(=N)N)NC(=O)[C@H](CC(C)C)NC(=O)[C@H](CC(C)C)NC(=O)[C@H](CO)NC(=O)[C@@H]1CCCN1C(=O)[C@@H](NC(=O)[C@H](CC(N)=O)NC(=O)[C@H](CCCNC(=N)N)NC(=O)CNC(=O)c1ccc2c(c1)C(=O)OC21c2ccc(O)cc2Oc2cc(O)ccc21)[C@@H](C)CC)C(C)C)C(=O)N[C@@H](CCCNC(=N)N)C(=O)N[C@@H](CCCNC(=N)N)C(=O)N[C@@H](CCCNC(=N)N)C(=O)N[C@@H](CCSC)C(=O)N[C@H](C(N)=O)C(C)C` [F-ArgMy1] (5FAM-GRNIPSLLRVQAHIRRRMV-NH2), the Kd (PfMTIPΔ60 [2]) was 3.9 nM, the “fold improvement in uptake compared to F-My1” value ([4]; Pf3D7 early schizonts, flow cytometry (Figure 2d)) was 2 fold and the “permeability, share of all parasitized cells” value ([4]; midstage schizonts, flow cytometry) was “up to 50%”. For the same molecule, the “In vivo Conc, TX I (insoluble)” value [5, 7] was 0.06 µM, the “In vivo Conc, TX S (soluble)” value [5, 7] was 2.94 µM and the “In vivo Conc, TX I (insoluble)” value [5, 8] was 0.39 µM. The “In vivo Conc, TX S (soluble)” value [5, 8] was 7.17 µM, the “In vivo Conc, TX I (insoluble), Av.” value [5, 9] was 0.22 µM and the “In vivo Conc, TX S (soluble), Av.” value [5, 9] was 5.06 µM. The “In vivo Conc, SLO S (soluble)” value ([5]; densitometry, 2 µL loading) was 2.03 µM, the “In vivo Conc, SLO I (insoluble)” value ([5]; densitometry, 5 µL loading) was 0.93 µM and the “In vivo Conc, SLO S (soluble)” value ([5]; densitometry, 5 µL loading) was 3.01 µM. For the same molecule, the “In vivo Conc, SLO I (insoluble), Av.” value [5, 10] was 0.51 µM, the “In vivo Conc, SLO S (soluble), Av.” value [5, 10] was 2.52 µM and the “In vivo Conc, SLO I (insoluble)” value ([5]; late schizonts, densitometry of in-gel fluorescence, 2 µL loading) was 0.10 µM. The EC50 (P. falciparum [3]) was about 160000 nM.

For FAM GRRRRRR -NH2 [F-Arg6], the “uptake … compared by chain length” value ([4]; Pf3D7 early schizonts) was “significant improvement over F-Arg4”.

Molecule `C[C@H]1[C@@H](O)O[C@@H]2O[C@@]3(C)CC[C@H]4[C@H](C)CC[C@@H]1[C@@]24OO3` [dihydroartemisin, Dihydroartemisinin] has an EC50 (P. falciparum [6]) of 10 nM.
